Earlier results on eight compounds are cited in paper PMC12394750, “2H-1,4-Benzoxazin-3(4H)-one linked 1,2,3-triazole derivatives and their study on inducing DNA damage in tumor cells” (Frontiers in Pharmacology, 2025).

pIC50: −log10 of the molar value. Where two headings read alike, the source gives them in different places.

Data set [1] relates to A549 cell. More on the design: method as in Zhou et al., 2014. The following applies: ref Zhou et al., 2014; read-out: Inhibition of A549 cell proliferation, IC50; cited from earlier work.
The test system of another data set is Jurkat cells. More on the design: method as in Pokhodylo et al., 2022. The following applies: ref Pokhodylo et al., 2022; cited from earlier work.
The subject of a further data set is HeLa cells. More on the design: method as in Nagavelli et al., 2016. As to conditions: ref Nagavelli et al., 2016; cited from earlier work.
The subject of another data set is MCF-7 cells. Also noted: method as in Nagavelli et al., 2016. The following applies: ref Nagavelli et al., 2016; cited from earlier work.
The subject of the next data set is A549 lung cancer cells. More on the design: method as in Han et al., 2024. As to conditions: ref Han et al., 2024; cited from earlier work.
A further data set concerns MV4-11 cancer cells. More on the design: method as in Feng et al., 2010. As to conditions: ref Feng et al., 2010; cited from earlier work.
In another data set the test system is DLD-1 cancer cells. More on the design: method as in Feng et al., 2010. The following applies: ref Feng et al., 2010; cited from earlier work.
A further data set deals with A549 cancer cells. Also noted: method as in Feng et al., 2010. As to conditions: ref Feng et al., 2010; cited from earlier work.
The test system of data set [2] is A549 cell. As to conditions: Tummatorn's team, no reference given; read-out: A549 cell proliferation, IC50; cited from earlier work.
In the next data set the test system is EGFR. Also noted: method as in Sagam et al., 2024. The following applies: ref Sagam et al., 2024; read-out: EGFR inhibitory activity, IC50; cited from earlier work.
Data set [3] deals with mineralocorticoid receptor. Also noted: method as in Hasui et al., 2011. As to conditions: ref Hasui et al., 2011; read-out: Mineralocorticoid receptor antagonist IC50; cited from earlier work.

Turning to `COc1cc(/C=C/C(=O)c2ccc3c(c2)NC(=O)CO3)cc(OC)c1` [compound 3c], the pIC50 in the data set with A549 cell [1] is 5.48.

`Cc1c(C(=O)Nc2ccc(SC#N)cc2)nnn1-c1ccc(C(C)C)cc1` [compound 4a]: in the data set with Jurkat cells, the DNA damage entry is “induce DNA damage” and the Mitochondrial membrane potential result is reported as “reduce mitochondrial membrane potential”.

With `COc1cccc(-c2ccc3c(c2)OCC(=O)N3Cc2cn(-c3cc(Cl)cc(Cl)c3)nn2)c1` [compound 5b], the “Cytotoxicity against HeLa, IC50” value with HeLa cells is 15.38 mg/L. Further, in the data set on MCF-7 cells, the “Cytotoxicity against MCF-7, IC50” value is 17.08 mg/L.

For the compound `C#CCCC(=O)OC1CC2[C@@]3(C)CCC(OC(=O)CCc4cn(CC(=O)OC)nn4)C(C)(C)C3CC[C@@]2(C)[C@]2(C)CCC([C@](C)(O)CCCC(C)(C)OC)C12` (stereo partly drawn) [compound 6a], the “Inhibitory activity against A549” value in the data set with A549 lung cancer cells was “strong inhibitory activity”.

As to `O=C1COc2ccc(-c3[nH]c(-c4ccc(C(F)(F)F)cc4)nc3-c3ccccc3)cc2N1` [compound 9c], the “Viability of MV4-11 cancer cells” value in the data set on MV4-11 cancer cells is on record as “significantly reduced”. In addition, the “Viability of DLD-1 cancer cells” value with DLD-1 cancer cells is listed as “significantly reduced”. Besides, in the data set on A549 cancer cells, the “Viability of A549 cancer cells” value is on record as “significantly reduced”.

`Fc1ccc2c(c1)C1=Nc3ccc(Br)cc3C1CN2Cc1cn(Cc2cccc(Cl)c2)nn1` (stereo not drawn) [compound 11l]: the pIC50 with A549 cell [2] was 5.52.

Turning to `O=C(Cn1nnc(CCN2C(=O)COc3ccccc32)n1)Nc1ccc(Cl)cc1` [compound 12g], the pIC50 with EGFR is 6.34.

As to `Cc1cc(F)ccc1-n1nc(C(F)(F)F)cc1-c1ccc2c(c1)NC(=O)CO2` [compound 14n], the pIC50 in data set [3] is 7.39.
